Assay results taken from US20260242419A1, “A CYCLIC PEPTIDE FOR TRAPPING INTERLEUKIN-1 BETA” (Merck Sharp & Dohme LLC, priority 2023, published 2026).
Starred links: 1 amine or outer side, 2 acyl side, 3 side chain; linkers in the order of their positions; H or OH if unused. Non-standard residues stand in square brackets, D forms with d. Residues, ends and D or L forms follow the SMILES beside them. Groups on a side chain read outwards from the residue. *: point of attachment. dPro(4R-(4-pyridylmethyl)) = O=C(O)[C@H]1C[C@@H](Cc2ccncc2)CN1; X17 = CN(C)C(=O)c1ccc(-c2ccc(C[C@H](N[*:1])C(=O)[*:2])cc2)cc1; Trp(βS-Me,4-F) = C[C@@H](c1c[nH]c2cccc(F)c12)[C@H](N)C(=O)O; Bip(4'-CONH2) = NC(=O)c1ccc(-c2ccc(C[C@H](N)C(=O)O)cc2)cc1; Bip(4'-COOH) = N[C@@H](Cc1ccc(-c2ccc(C(=O)O)cc2)cc1)C(=O)O; dPro(4R-Bzl(4-F)) = O=C(O)[C@H]1C[C@@H](Cc2ccc(F)cc2)CN1; dPro(3S-(4-F-Bn)) = O=C(O)[C@@H]1NCC[C@@H]1Cc1ccc(F)cc1; Ala(pyrimidin-5-yl) = N[C@@H](Cc1cncnc1)C(=O)O; Phe(4-COOH) = N[C@@H](Cc1ccc(C(=O)O)cc1)C(=O)O; X25 = C[N+](C)(C)CCC[C@H](N[*:1])C(=O)[*:2]; Lys(Me3) = C[N+](C)(C)CCCC[C@H](N)C(=O)O; Phe(4-Br) = N[C@@H](Cc1ccc(Br)cc1)C(=O)O; Pro(cis-4-F) = O=C(O)[C@@H]1C[C@H](F)CN1; Ala(4-THP) = N[C@@H](CC1CCOCC1)C(=O)O; Cyclohexanecarbonyl = O=C(C1CCCCC1)*; AEF = NCCOc1ccc(C[C@H](N)C(=O)O)cc1; d(αMeD) = C[C@@](N)(CC(=O)O)C(=O)O; Pyrazinecarbonyl = O=C(c1cnccn1)*; 4Pal = N[C@@H](Cc1ccncc1)C(=O)O; Dab = NCC[C@H](N)C(=O)O; Aib = CC(C)(N)C(=O)O; Inp = O=C(O)C1CCNCC1; Piv = CC(C)(C)C(=O)*

target: T1, IL-1β (Homo sapiens, UniProt P01584); test: IL-6 assay in MRC5 cells: inhibition of IL-1β induced IL-6 secretion (AlphaLISA); assay type: cell-based; conditions: inhibition of IL-1β induced IL-6 secretion in MRC5 cells; compound pre-incubated 1 hour with recombinant human IL-1β; read-out: MRC5 IC50
T1 construct: purchased BioLegend 579404
In short: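 Compound was pre-incubated 1 h at ambient temperature with recombinant human IL-1β at 2λ EC80 before adding human lung fibroblast MRC5 cells (3000/well) in EMEM with 0.025% BSA. After overnight culture at 37 °C, 5% CO2, secreted IL-6 in conditioned medium was measured by AlphaLISA; IC50 from 4-parameter logistic fits.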

T1 sequence (P01584 117-269): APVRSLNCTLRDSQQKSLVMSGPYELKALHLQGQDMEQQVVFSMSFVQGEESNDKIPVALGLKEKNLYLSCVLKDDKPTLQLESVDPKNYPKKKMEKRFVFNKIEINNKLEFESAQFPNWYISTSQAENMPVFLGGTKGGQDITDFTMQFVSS

| IC50 | Structure (SMILES) |
| --- | --- |
| 0.012 nM | C[C@@H](c1c[nH]c2cccc(F)c12)[C@@H]1NC(=O)[C@@H]2C[C@H](F)CN2C(=O)CNC(=O)[C@H](Cc2ccc(C(=O)O)cc2)NC(=O)[C@H](Cc2ccncc2)NC(=O)[C@H](Cc2ccc(-c3ccc(C(=O)N(C)C)cc3)cc2)NC(=O)[C@H]2C[C@@H](Cc3ccncc3)CN2C(=O)CNC(=O)[C@H](CCN)NC(=O)[C@H](CCC(N)=O)NC(=O)[C@H](CC2CCOCC2)NC(=O)[C@@](C)(CC(=O)O)NC(=O)[C@H](Cc2c[nH]c3ccccc23)NC(=O)[C@H](CO)NC(=O)C(C)(C)NC1=O [Example 295] (cyclo([X17][4Pal][Phe(4-COOH)]G[Pro(cis-4-F)][Trp(βS-Me,4-F)][Aib]SW[d(αMeD)][Ala(4-THP)]Q[Dab]G[dPro(4R-(4-pyridylmethyl))])) |
| 0.013 nM | C[C@@H](c1c[nH]c2cccc(F)c12)[C@@H]1NC(=O)[C@@H]2C[C@H](F)CN2C(=O)CNC(=O)[C@H](Cc2ccc(C(=O)O)cc2)NC(=O)[C@H](Cc2ccncc2)NC(=O)[C@H](Cc2ccc(-c3ccc(C(N)=O)cc3)cc2)NC(=O)[C@H]2C[C@@H](Cc3ccncc3)CN2C(=O)CNC(=O)[C@H](CCN)NC(=O)[C@H](CCC(N)=O)NC(=O)[C@H](CC2CCOCC2)NC(=O)[C@@](C)(CC(=O)O)NC(=O)[C@H](Cc2c[nH]c3ccccc23)NC(=O)[C@H](CO)NC(=O)C(C)(C)NC1=O [Example 296] (cyclo([Bip(4'-CONH2)][4Pal][Phe(4-COOH)]G[Pro(cis-4-F)][Trp(βS-Me,4-F)][Aib]SW[d(αMeD)][Ala(4-THP)]Q[Dab]G[dPro(4R-(4-pyridylmethyl))])) |
| 0.022 nM | C[C@@H](c1c[nH]c2cccc(F)c12)[C@@H]1NC(=O)[C@@H]2C[C@H](F)CN2C(=O)CNC(=O)[C@H](Cc2ccc(C(=O)O)cc2)NC(=O)[C@H](Cc2ccncc2)NC(=O)[C@H](Cc2ccc(-c3ccc(C(=O)O)cc3)cc2)NC(=O)[C@H]2C[C@@H](Cc3ccc(F)cc3)CN2C(=O)CNC(=O)[C@H](CCN)NC(=O)[C@H](CCC(N)=O)NC(=O)[C@H](CCC[N+](C)(C)C)NC(=O)C(C)(C)NC(=O)[C@H](Cc2c[nH]c3ccccc23)NC(=O)[C@H](CO)NC(=O)C(C)(C)NC1=O [Example 297] (cyclo([Bip(4'-COOH)][4Pal][Phe(4-COOH)]G[Pro(cis-4-F)][Trp(βS-Me,4-F)][Aib]SW[Aib][X25]Q[Dab]G[dPro(4R-Bzl(4-F))])) |
| 0.015 nM | C[C@@H](c1c[nH]c2cccc(F)c12)[C@@H]1NC(=O)[C@@H]2C[C@H](F)CN2C(=O)CNC(=O)[C@H](Cc2ccc(C(=O)O)cc2)NC(=O)[C@H](Cc2ccncc2)NC(=O)[C@H](Cc2ccc(-c3ccc(C(=O)O)cc3)cc2)NC(=O)[C@H]2C[C@@H](Cc3ccc(F)cc3)CN2C(=O)CNC(=O)[C@H](CCN)NC(=O)[C@H](CCC(N)=O)NC(=O)[C@H](CCCC[N+](C)(C)C)NC(=O)C(C)(C)NC(=O)[C@H](Cc2c[nH]c3ccccc23)NC(=O)[C@H](CO)NC(=O)C(C)(C)NC1=O [Example 298] (cyclo([Bip(4'-COOH)][4Pal][Phe(4-COOH)]G[Pro(cis-4-F)][Trp(βS-Me,4-F)][Aib]SW[Aib][Lys(Me3)]Q[Dab]G[dPro(4R-Bzl(4-F))])) |
| 0.012 nM | C[C@@H](c1c[nH]c2cccc(F)c12)[C@@H]1NC(=O)[C@@H]2C[C@H](F)CN2C(=O)CNC(=O)[C@H](Cc2ccc(C(=O)O)cc2)NC(=O)[C@H](Cc2ccncc2)NC(=O)[C@H](Cc2ccc(Br)cc2)NC(=O)[C@H]2[C@@H](Cc3ccc(F)cc3)CCN2C(=O)CNC(=O)[C@H](CCN)NC(=O)[C@H](CCC(N)=O)NC(=O)[C@H](Cc2cncnc2)NC(=O)[C@@](C)(CC(=O)O)NC(=O)[C@H](Cc2c[nH]c3ccccc23)NC(=O)[C@H](CO)NC(=O)C(C)(C)NC1=O [Example 299] (cyclo([Phe(4-Br)][4Pal][Phe(4-COOH)]G[Pro(cis-4-F)][Trp(βS-Me,4-F)][Aib]SW[d(αMeD)][Ala(pyrimidin-5-yl)]Q[Dab]G[dPro(3S-(4-F-Bn))])) |
| 0.013 nM | C[C@@H](c1c[nH]c2cccc(F)c12)[C@@H]1NC(=O)[C@@H]2C[C@H](F)CN2C(=O)CNC(=O)[C@H](Cc2ccc(C(=O)O)cc2)NC(=O)[C@H](Cc2ccncc2)NC(=O)[C@H](Cc2ccc(OCCNC(=O)C(C)(C)C)cc2)NC(=O)[C@H]2C[C@@H](Cc3ccncc3)CN2C(=O)CNC(=O)[C@H](CCN)NC(=O)[C@H](CCC(N)=O)NC(=O)[C@H](Cc2cncnc2)NC(=O)C(C)(C)NC(=O)[C@H](Cc2c[nH]c3ccccc23)NC(=O)[C@H](CO)NC(=O)C(C)(C)NC1=O [Example 300] (cyclo([AEF](Piv)[4Pal][Phe(4-COOH)]G[Pro(cis-4-F)][Trp(βS-Me,4-F)][Aib]SW[Aib][Ala(pyrimidin-5-yl)]Q[Dab]G[dPro(4R-(4-pyridylmethyl))])) |
| 0.017 nM | C[C@@H](c1c[nH]c2cccc(F)c12)[C@@H]1NC(=O)[C@@H]2C[C@H](F)CN2C(=O)CNC(=O)[C@H](Cc2ccc(C(=O)O)cc2)NC(=O)[C@H](Cc2ccncc2)NC(=O)[C@H](Cc2ccc(OCCNC(=O)C3CCCCC3)cc2)NC(=O)[C@H]2C[C@@H](Cc3ccncc3)CN2C(=O)CNC(=O)[C@H](CCN)NC(=O)[C@H](CCC(N)=O)NC(=O)[C@H](Cc2cncnc2)NC(=O)C(C)(C)NC(=O)[C@H](Cc2c[nH]c3ccccc23)NC(=O)[C@H](CO)NC(=O)C(C)(C)NC1=O [Example 301] (cyclo([AEF](Cyclohexanecarbonyl)[4Pal][Phe(4-COOH)]G[Pro(cis-4-F)][Trp(βS-Me,4-F)][Aib]SW[Aib][Ala(pyrimidin-5-yl)]Q[Dab]G[dPro(4R-(4-pyridylmethyl))])) |
| 0.017 nM | CC(=O)N1CCC(C(=O)NCCOc2ccc(C[C@@H]3NC(=O)[C@H]4C[C@@H](Cc5ccncc5)CN4C(=O)CNC(=O)[C@H](CCN)NC(=O)[C@H](CCC(N)=O)NC(=O)[C@H](Cc4cncnc4)NC(=O)C(C)(C)NC(=O)[C@H](Cc4c[nH]c5ccccc45)NC(=O)[C@H](CO)NC(=O)C(C)(C)NC(=O)[C@H]([C@@H](C)c4c[nH]c5cccc(F)c45)NC(=O)[C@@H]4C[C@H](F)CN4C(=O)CNC(=O)[C@H](Cc4ccc(C(=O)O)cc4)NC(=O)[C@H](Cc4ccncc4)NC3=O)cc2)CC1 [Example 302] (cyclo([AEF]([Inp-Ac])[4Pal][Phe(4-COOH)]G[Pro(cis-4-F)][Trp(βS-Me,4-F)][Aib]SW[Aib][Ala(pyrimidin-5-yl)]Q[Dab]G[dPro(4R-(4-pyridylmethyl))])) |
| 0.016 nM | C[C@@H](c1c[nH]c2cccc(F)c12)[C@@H]1NC(=O)[C@@H]2C[C@H](F)CN2C(=O)CNC(=O)[C@H](Cc2ccc(C(=O)O)cc2)NC(=O)[C@H](Cc2ccncc2)NC(=O)[C@H](Cc2ccc(OCCNC(=O)c3cnccn3)cc2)NC(=O)[C@H]2C[C@@H](Cc3ccncc3)CN2C(=O)CNC(=O)[C@H](CCN)NC(=O)[C@H](CCC(N)=O)NC(=O)[C@H](Cc2cncnc2)NC(=O)C(C)(C)NC(=O)[C@H](Cc2c[nH]c3ccccc23)NC(=O)[C@H](CO)NC(=O)C(C)(C)NC1=O [Example 303] (cyclo([AEF](Pyrazinecarbonyl)[4Pal][Phe(4-COOH)]G[Pro(cis-4-F)][Trp(βS-Me,4-F)][Aib]SW[Aib][Ala(pyrimidin-5-yl)]Q[Dab]G[dPro(4R-(4-pyridylmethyl))])) |
